Results on eight compounds are retold here after US10669245B2, “Certain (2S)-N-[(1S)-1-cyano-2-phenylethyl]-1,4-oxazepane-2-carboxamides dipeptidyl peptidase 1 inhibitors” (AstraZeneca AB, priority 2014, dated 2020).

The nature of data set [1]: Test B: In-Vitro Competitive Aortic Tissue Binding Assay. Also noted: species or system Han Wistar rats. Conditions: 100 μM compound, competition with [14C]-labelled WO2010/128324 Ex. 3 in rat aortic homogenate; four categories. As to the method: To assist the design of DPP1 inhibitors with a decreased risk of binding to elastin rich tissues, such as the aorta, the in-vitro competitive aortic binding assay disclosed below (Test B) was developed to facilitate the selection process.
Test B: In-Vitro Competitive Aortic Tissue Binding Assay
Aortic homogenate was prepared from the thoracic aortae of Han Wistar rats. Freshly isolated to thoracic aortae were frozen, and later thawed and stripped of non-elastic material. […] Homogenate concentration was adjusted to 30 mg/mL in Puck's saline, and aliquots were stored at −80° C. until use. Positive and negative control compounds and test compounds were made up to 100 mM in DMSO, and added to 1 mL aliquots of aortic homogenate in Puck's saline for a final concentration of 100 μM. Homogenate samples were pre-incubated with test compounds at 37° C., rotating, overnight. [^14C]4-Amino-N-[(1S)-1-cyano-2-(4′-cyanobiphenyl-4-yl)ethyl]tetrahydro-2H-pyran-4-carboxamide was then added to all samples to a final concentration of 100 μM, and samples were incubated at 37° C., rotating, for a further 2 h. Protein was precipitated from each sample by the addition of 10 mL acetone, pre-chilled to −20° C. Samples were left overnight at −20° C. to allow complete precipitation. Precipitate was pelleted by centrifugation at 4,500×g at 4° C. for 20 min, an aliquot of supernatant was removed for analysis, and the remainder of the supernatant discarded. Precipitate was washed by resuspension in 10 mL 80% methanol in distilled water, and re-pelleted by centrifugation at 4,500×g at 4° C. for 20 min. […] After final wash, precipitate was air-dried, and dissolved overnight in 1 mL NCSII Tissue Solubiliser. 1 mL aliquots of supernatants were added to 5 mL Ultima Gold scintillation fluid (Perkin Elmer, Mass., U.S.A.), and 1 mL solubilised pellets were added to 5 mL Hionic-Fluor scintillation fluid (Perkin Elmer, Mass., U.S.A.). Radioactivity of samples was determined on a Beckman LS6500 multipurpose scintillation counter (Beckman Coulter, Ind., U.S.A.). […] Duplicate samples were tested for each compound on each experimental occasion, and at least two experiments were run for each test compound. […] 1-way ANOVA and Bonferroni's multiple comparison tests were performed to calculate significance of differences from vehicle control.

The target of data set [2] is Recombinant Human (RH) DPP1 (Homo sapiens (Human), UniProt P53634). The experiment in a line: Test A1: Fluorescence Assay for Recombinant Human (RH) DPP1. The class given is biochemical. Conditions: Test A1, rhDPP1, H-Gly-Arg-AMC substrate (Examples 1-35). Here is the method:
Test A1: Fluorescence Assay for Recombinant Human (RH) DPP1
The activity of DPP1 was determined by measuring the enzymatic release of aminomethyl coumarin (AMC) from the peptide substrate (H-Gly-Arg-AMC), which leads to an increase in fluorescence intensity at λex=350 nm and λem=450 nm. The assay was carried out in black 384 well plates in a final volume of 50 μl at 22° C. The assay conditions contained the following: 25 mM piperazine buffer pH 5.0; 50 mM NaCl, 5 mM DTT; 0.01% (v/v) Triton X-100; 100 μM H-Gly-Arg-AMC and rhDPP1 (˜50 pM). […] Routinely, inhibitors were pre-incubated with rhDPP1 for 30-60 min prior to the addition of the peptide substrate to start the reaction for a further 60 min at 22° C.

Data set [3] is described as follows: rat quantitative whole-body autoradiography (QWBA) studies. The class given is in vivo.
The conditions of data set [4]: described in literature (Schmidt et al. 1984); cited from earlier work.

Sequence of Recombinant Human (RH) DPP1 (P53634 231-394): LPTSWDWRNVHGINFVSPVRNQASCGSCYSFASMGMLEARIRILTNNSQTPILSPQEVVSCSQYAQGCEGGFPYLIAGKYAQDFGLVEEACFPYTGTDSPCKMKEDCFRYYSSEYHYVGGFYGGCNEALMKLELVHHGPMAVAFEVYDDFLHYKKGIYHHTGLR
Sequence of Recombinant Human (RH) DPP1 (P53634 25-143): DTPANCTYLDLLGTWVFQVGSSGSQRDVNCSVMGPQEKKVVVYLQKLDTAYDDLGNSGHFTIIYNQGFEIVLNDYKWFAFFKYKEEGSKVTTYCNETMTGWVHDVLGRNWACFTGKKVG
Sequence of Recombinant Human (RH) DPP1 (P53634 395-463): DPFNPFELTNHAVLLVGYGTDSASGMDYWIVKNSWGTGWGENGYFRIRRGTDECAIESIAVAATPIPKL

Regarding `Cn1c(=O)oc2ccc(-c3ccc(C[C@@H](C#N)NC(=O)[C@@H]4CNCCCO4)cc3)cc21` [Example 2, (2S)—N-{(1S)-1-Cyano-2-[4-(3-methyl-2-oxo-2,3-dihydro-1,3-benzoxazol-5-yl)phenyl]ethyl}-1,4-oxazepane-2-carboxamide], in data set [1], the “Aortic Tissue Binding” value is “No binder”. For the compound `N#C[C@H](Cc1ccc(-c2ccc(C(N)=O)c(F)c2)cc1)NC(=O)[C@@H]1CNCCCO1` [Example 23, (2S)-N-[(1S)-2-(4′-Carbamoyl-3′-fluorobiphenyl-4-yl)-1-cyanoethyl]-1,4-oxazepane-2-carboxamide], in data set [2], the “DPP1 activity, pIC50” value was 7.17.

In the case of `CS(=O)(=O)c1ccc(-c2ccc(C[C@@H](C#N)NC(=O)[C@@H]3CNCCCO3)cc2)cc1` [Example 30, (2S)-N-{(1S)-1-Cyano-2-[4′-(methylsulfonyl)biphenyl-4-yl]ethyl}-1,4-oxazepane-2-carboxamide], the “DPP1 activity, pIC50” value in data set [2] is recorded as 7.43. For `N#Cc1ccc(-c2ccc(C[C@@H](C#N)NC(=O)[C@@H]3CCCCN3)cc2)cc1` [WO2009/074829 (Example 24)], the “Aortic Tissue Binding” value in data set [1] is on record as “Binder”. On the same count and under the same terms, next, `Cn1c(=O)oc2ccc(-c3ccc(C[C@@H](C#N)NC(=O)[C@@H]4CCCCN4)cc3)cc21` [WO2009/074829 (Example 96)]: “Medium binder”. `N#Cc1ccc(-c2ccc(C[C@@H](C#N)NC(=O)C3(N)CCOCC3)cc2)cc1` [WO2010/128324 (Ex. 3), 4-amino-N-[(1S)-1-cyano-2-(4′-cyanobiphenyl-4-yl)ethyl]tetrahydro-2H-pyran-4-carboxamide]: the “Aortic Tissue Binding” value in data set [1] is on record as “Strong binder (reference)”. The “aortic retention in QWBA” value in data set [3] was “high level of aortic retention”. Take `Cn1c(=O)oc2ccc(-c3ccc(C[C@@H](C#N)NC(=O)C4(N)CCOCC4)cc3)cc21` [WO2010/128324 (Example 17)]: in data set [1], the “Aortic Tissue Binding” value was “Strong binder”. `CC(c1ccc(Cl)c(Cl)c1)N1N=C(N)CC1=O` (stereo not drawn) [muzolimine]: in data set [4], the “retention in the aorta in QWBA” value is “retained selectively in the aorta”.
